As usually defined, the IC50 is the concentration that inhibits the measured activity by half. Usually MRT stands for a mean duration of stay, worked out from the concentration-time curve. What is called Tmax is the time from dosing to the highest level.

The values that follow come from patent publication US12612403B2, “Nitrogen-containing heterocyclic derivative inhibitor, and preparation method therefor and use thereof” (SHANGHAI HANSOH BIOMEDICAL CO., LTD., priority 2024, dated 2026).

One data set concerns the target T1, PCSK9 protein (Homo sapiens, UniProt Q8NBP7).
T1 construct: purchased Sino biology (Sino Biological) 29698-H08H
Briefly: Binding ability to PCSK9 protein (HTRF). Conditions: PCSK9-His, Alexa Fluor 647 probe compound. How it is done: 1. Experimental objective: To detect the action of compounds to bind PCSK9 protein by an HTRF method.
3. Experimental data processing method: Four-parameter log(inhibitor) vs. response—Variable slope (four parameters) in XLit was used to perform non-linear fitting of the compound concentration and the corresponding inhibition rate, and IC50 was calculated.
A general note: TR-FRET usually uses a lanthanide donor and a delayed reading to cut background.

Data set [1] is described as follows: Pharmacokinetic determination in mice (PO 5 mg/kg, IV 1 mg/kg). It counts as in vivo, C57BL/6J mice. To be noted: male, C57BL/6J, mouse, plasma, C57 mice, PO administration, 5 mpk. How it is done: 1. Experimental objective: C57BL/6J mice were used as test animals to study the pharmacokinetic behavior of the compounds of the present disclosure in mice (plasma) after oral and intravenous administration.
2.2 Test animals: C57 mice, male, purchased from Shanghai Bk Lab Animal Co., Ltd., with animal production license number (SCXK (Shanghai) 2013-0006 N0.311620400001794).
2.3 Drug preparation: Preparation of oral drug: 10% Solutol HS15
10 g of Solutol HS15 solid was weighed, dissolved in 90 mL of pure water, uniformly mixed, stirred, and ultrasonically treated to form a clear solution. The compound of the present disclosure was weighed and dissolved in this solution, uniformly shaken, and ultrasonically treated for 15 minutes to obtain a colorless clear solution with a concentration of 0.5 mg/mL. Preparation of intravenous drug: 5% DMSO+10% Solutol HS15+85% PBS, the compound of the present disclosure was weighed, 5% DMSO was first added on the basis of the proportion relative to the total volume of administration, and the mixture was vortexed and ultrasonically treated for 2 min until it was completely dissolved; 10% of Solutol HS15 was then added, and the mixture was vortexed and ultrasonically treated for 2 min until it was completely dissolved; and finally, 85% of PBS was added, and the mixture was vortexed, ultrasonically treated for 5 min, and filtered through a 0.22 um filter membrane to obtain a colorless and transparent clear solution with a concentration of 0.2 mg/mL.
2.4 Administration: 3 male C57 mice were fasted overnight and then respectively administered PO at a dose of 5 mg/kg and a volume of 10 mL/kg. 3 male C57 mice were fasted overnight and then respectively administered IV at a dose of 1 mg/kg and a volume of 5 mL/kg.
2.5 Sample collection: Before and after administration of mice, 0.04 mL of blood was collected from the orbit at 0.083 (iv), 0.25, 0.5, 1, 2, 4, 8, and 24 hours, and placed in EDTA-K2 test tubes, which was centrifuged at 6000 rpm at 4° C. for 6 min to separate plasma which was stored at −80° C.; and the […] were fed 4 h after administration.
2.6 Determination results: The final determination results were obtained by using an LCMS/MS method.
3. Experimental results: The main pharmacokinetic parameters were calculated using WinNonlin 6.1.

T1 sequence (Q8NBP7 153-692): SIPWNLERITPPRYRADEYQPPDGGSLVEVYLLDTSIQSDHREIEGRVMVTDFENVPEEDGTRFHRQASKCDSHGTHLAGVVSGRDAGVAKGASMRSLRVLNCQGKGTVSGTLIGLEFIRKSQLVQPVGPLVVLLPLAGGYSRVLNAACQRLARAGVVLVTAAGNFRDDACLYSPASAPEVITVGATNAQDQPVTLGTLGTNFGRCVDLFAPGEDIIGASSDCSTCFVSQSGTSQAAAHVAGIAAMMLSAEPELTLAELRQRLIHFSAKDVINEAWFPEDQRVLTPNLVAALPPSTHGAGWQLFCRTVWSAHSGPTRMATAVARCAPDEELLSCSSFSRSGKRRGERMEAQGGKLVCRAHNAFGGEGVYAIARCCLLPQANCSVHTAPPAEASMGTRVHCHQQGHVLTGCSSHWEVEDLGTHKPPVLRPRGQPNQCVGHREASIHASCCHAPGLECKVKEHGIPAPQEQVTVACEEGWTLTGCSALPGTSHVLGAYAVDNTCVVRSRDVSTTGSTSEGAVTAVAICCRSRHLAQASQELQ

The compound `O=c1ccncn1-c1ccc(N[C@H]2CC[C@H](Nc3nc4cc(F)ccn4n3)C2)nc1` [Example 28, 3-(6-(((1S,3S)-3-((7-fluoro-[1,2,4]triazolo[1,5-a]pyridin-2-yl)amino)cyclopentyl)amino)pyridin-3-yl)pyrimidin-4(3H)-one] came in with an IC50 on PCSK9 protein of 17.4 nM. In other words, the double-digit nanomolar range.

As for `O=c1cnccn1-c1ccc(N[C@H]2CC[C@H](Nc3nc4cc(F)ccn4n3)C2)nc1` [Example 29, 1-(6-(((1S,3S)-3-((7-fluoro-[1,2,4]triazolo[1,5-a]pyridin-2-yl)amino)cyclopentyl)amino)pyridin-3-yl)pyrazin-2(1H)-one], the IC50 on PCSK9 protein came to 18.4 nM. This IC50 and that of the compound before are within 1.5-fold of each other.

In turn, `O=C1COCCN1c1ccc(N[C@H]2CC[C@H](Nc3nc4cc(F)ccn4n3)C2)nc1` [Example 53, 4-(6-(((1S,3S)-3-((7-fluoro-[1,2,4]triazolo[1,5-a]pyridin-2-yl)amino)cyclopentyl)amino)pyridin-3-yl)morpholin-3-one] displayed an IC50 at PCSK9 protein of 43.6 nM.

In turn, `O=C1c2ncc(F)cc2CN1c1ccc(N[C@H]2CC[C@H](Nc3nc4cc(OC(F)F)ccn4n3)C2)nc1` [Example 98] registered an IC50 on PCSK9 protein of 6.6 nM.

On to `O=c1nc(O)ccn1-c1ccc(N[C@H]2CC[C@H](Nc3nc4cc(F)ccn4n3)C2)nc1` [Example 102], for which, on PCSK9 protein, the IC50 was determined as 13.3 nM.

With `O=c1nc(O)ccn1-c1ccc(N[C@H]2CC[C@H](Nc3nc4cc(C(F)F)ccn4n3)C2)nc1` [Example 104], the IC50 at PCSK9 protein amounted to 13.9 nM.

`O=c1nc(O)ccn1-c1ccc(N[C@H]2CC[C@H](Nc3nc4cc(OC(F)F)ccn4n3)C2)nc1` [Example 105]: at PCSK9 protein, the half-inhibitory concentration (IC50) came to 9.1 nM. This IC50 lies about 1.5-fold lower than the previous one.

At PCSK9 protein, `Cc1ccn2nc(N[C@H]3CC[C@H](Nc4ccc(-n5ccc(O)nc5=O)cn4)C3)nc2c1` [Example 106] came in with an IC50 of 10.6 nM.

Compound `O=c1nc(O)ccn1-c1ccc(N[C@H]2CC[C@H](Nc3nc4cc(C5CC5)ccn4n3)C2)nc1` [Example 107] yielded an IC50 at PCSK9 protein of 21.3 nM.

The compound `O=c1nc(O)c(C(F)(F)F)cn1-c1ccc(N[C@H]2CC[C@H](Nc3nc4cc(C(F)(F)F)ccn4n3)C2)nc1` [Example 119] returned an IC50 on PCSK9 protein of 23 nM. The IC50 values of the last two compounds are within 1.5-fold of each other.

Regarding `Cc1cnc2c(c1)C(=O)N(c1ccc(N[C@H]3CC[C@H](Nc4nc5cc(OC(F)F)ccn5n4)C3)nc1)C2` [Example 128], the IC50 at PCSK9 protein came out at 8.5 nM.

Take `Cc1ccc2c(n1)CN(c1ccc(N[C@H]3CC[C@H](Nc4nc5cc(OC(F)F)ccn5n4)C3)nc1)C2=O` [Example 131]: the AUC(0-inf) in data set [1] (read-out: Area under the curve AUC0-∞) came to 22400 ng·h/mL. The half-life in data set [1] (read-out: Half-life t1/2 (converted)) was 3.4 h. In data set [1] (read-out: Mean residence time MRT), the mean residence time (MRT) is 2.7 h. The Cmax in data set [1] (read-out: Plasma concentration Cmax) was found to be 7170 ng/mL. Besides, the Tmax in data set [1] (read-out: Time to peak tmax) is 0.5 h. At PCSK9 protein, this compound registered an IC50 of 6.7 nM.

The compound `O=C1c2c(F)ccnc2CN1c1ccc(N[C@H]2CC[C@H](Nc3nc4cc(OC(F)F)ccn4n3)C2)nc1` [Example 135] yielded a concentration for half-maximal inhibition (IC50) at PCSK9 protein of 5.4 nM.

At PCSK9 protein, `N#Cc1cnc2c(c1)C(=O)N(c1ccc(N[C@H]3CC[C@H](Nc4nc5cc(F)ccn5n4)C3)nc1)C2` [Example 137] registered an IC50 of 15.9 nM. Against the preceding compound, the IC50 is about 2.9-fold higher.

Compound `O=C1c2ccc(O)nc2CN1c1ccc(N[C@H]2CC[C@H](Nc3nc4cc(OC(F)F)ccn4n3)C2)nc1` [Example 138] came in with a half-maximal inhibitory concentration (IC50) at PCSK9 protein of 8.8 nM.

On PCSK9 protein, `O=C1c2nc(O)ccc2CN1c1ccc(N[C@H]2CC[C@H](Nc3nc4cc(C(F)(F)F)ccn4n3)C2)nc1` [Example 139] displayed a half-maximal inhibitory concentration (IC50) of 36.3 nM.

`Cc1cc(N[C@H]2CC[C@H](Nc3nc4cc(C(F)(F)F)ccn4n3)C2)ncc1N1Cc2nc(O)ccc2C1=O` [Example 144] had a half-inhibitory concentration (IC50) on PCSK9 protein of 15.6 nM.

In turn, `O=C1c2cccnc2CN1c1cnc(N[C@H]2CC[C@H](Nc3nc4cc(OC(F)F)ccn4n3)C2)c(F)c1` [Example 152] showed an IC50 on PCSK9 protein of 6.7 nM. This IC50 lies about 2.3-fold lower than the previous one.

`O=C1c2cc(F)cnc2CN1c1cnc(N[C@H]2CC[C@H](Nc3nc4cc(OC(F)F)ccn4n3)C2)c(F)c1` [Example 158] returned an IC50 at PCSK9 protein of 16 nM.

For `Cc1cc2c(cn1)CN(c1cnc(N[C@H]3CC[C@H](Nc4nc5cc(OC(F)F)ccn5n4)C3)c(F)c1)C2=O` [Example 160], on PCSK9 protein, the half-maximal inhibitory concentration (IC50) stood at 7.7 nM. This IC50 lies about 2.1-fold lower than the previous one.

For `O=C1c2ncccc2CN1c1cnc(N[C@H]2CC[C@H](Nc3nc4cc(C5CC5)ccn4n3)C2)c(F)c1` [Example 166], the half-inhibitory concentration (IC50) on PCSK9 protein is 7.9 nM. This IC50 and that of the compound before are within 1.5-fold of each other.

In the case of `CC(C)(O)c1ccn2nc(N[C@H]3CC[C@H](Nc4ncc(N5Cc6cccnc6C5=O)cc4F)C3)nc2c1` [Example 168], the IC50 on PCSK9 protein worked out at 10.6 nM.

Turning to `COc1cc(N2Cc3cccnc3C2=O)cnc1N[C@H]1CC[C@H](Nc2nc3cc(C(F)(F)F)ccn3n2)C1` [Example 170], the concentration for half-maximal inhibition (IC50) at PCSK9 protein stood at 13.3 nM.

On PCSK9 protein, `Cc1nc(N[C@H]2CC[C@H](Nc3nc4cc(C(F)(F)F)ccn4n3)C2)ccc1N1Cc2cccnc2C1=O` [Example 176] yielded a half-inhibitory concentration (IC50) of 9.08 nM. The IC50 values of the last two compounds are within 1.5-fold of each other.

Turning to `CC(C)(O)c1cccn(-c2cnc(N[C@H]3CC[C@H](Nc4nc5cc(C(F)(F)F)ccn5n4)C3)c(F)c2)c1=O` [Example 182], the IC50 on PCSK9 protein was 29.3 nM.

At PCSK9 protein, `Cc1cc2c(cn1)CN(c1cnc(N[C@H]3CC[C@H](Nc4nc5cc(F)ccn5n4)C3)c(F)c1)C2=O` [Example 190] displayed a 50% inhibitory concentration (IC50) of 8.5 nM. Against the preceding compound, the IC50 is about 3.4-fold lower.

The compound `O=c1[nH]cc(-c2cnc(N[C@H]3CC[C@H](Nc4nc5cc(C(F)(F)F)ccn5n4)C3)c(F)c2)c(=O)[nH]1` [Example 195] registered an IC50 at PCSK9 protein of 9.6 nM.

`CC(C)(O)c1cnc2c(c1)CN(c1cnc(N[C@H]3CC[C@H](Nc4nc5cc(F)ccn5n4)C3)c(F)c1)C2=O` [Example 196] registered an IC50 at PCSK9 protein of 8.7 nM.

`CC(C)(O)c1ccnc2c1CN(c1cnc(N[C@H]3CC[C@H](Nc4nc5cc(F)ccn5n4)C3)c(F)c1)C2=O` [Example 197]: the concentration for half-maximal inhibition (IC50) at PCSK9 protein worked out at 7.5 nM. This IC50 and that of the compound before are within 1.5-fold of each other.

Take `O=C1c2nccn2CCN1c1cnc(N[C@H]2CC[C@H](Nc3nc4cc(C(F)(F)F)ccn4n3)C2)c(F)c1` [Example 213]: the IC50 at PCSK9 protein came out at 9.5 nM. The IC50 values of the last two compounds are within 1.5-fold of each other.

Compound `Cc1ccn2nc(N[C@H]3CC[C@H](Nc4ncc(N5Cc6ncccc6C5=O)cc4F)C3)nc2c1` [Example 223] gave an IC50 on PCSK9 protein of 7.2 nM. This IC50 and that of the compound before are within 1.5-fold of each other.

With `Cc1ccn2nc(N[C@H]3CC[C@H](Nc4ncc(-n5ccccc5=O)cc4F)C3)nc2c1` [Example 224], the IC50 at PCSK9 protein was found to be 8.5 nM.

The compound `Cc1ccn2nc(N[C@H]3CC[C@H](Nc4ncc(-n5ccc(O)nc5=O)cc4F)C3)nc2c1` [Example 225] registered an IC50 at PCSK9 protein of 8.6 nM. This IC50 and that of the compound before are within 1.5-fold of each other.

The compound `Cc1ccn2nc(N[C@H]3CC[C@H](Nc4ncc(N5CCn6nccc6C5=O)cc4F)C3)nc2c1` [Example 226] had a concentration for half-maximal inhibition (IC50) on PCSK9 protein of 7.1 nM.

On PCSK9 protein, `Cc1nc(N[C@H]2CC[C@H](Nc3nc4cc(C(F)(F)F)ccn4n3)C2)c(F)cc1N1CCn2nccc2C1=O` [Example 238] showed an IC50 of 8 nM.
